Measured values from article PMC3501516, “Anti-Diabetic Efficacy and Impact on Amino Acid Metabolism of GRA1, a Novel Small-Molecule Glucagon Receptor Antagonist” (PLoS ONE, 2012).

Columns and labels:
rhesus monkeys = assay: Fasted plasma glucagon, glucose and amino acids in rhesus monkeys dosed 14 days; format: in vivo, rhesus monkey
Method: In a follow-up experiment, adult rhesus monkeys were dosed once daily for 14 days with 30 mg/kg GRA1 or vehicle (0.5% methylcellulose plus 0.02% sodium dodecyl sulfate in 2 mL/kg water) delivered by oral gavage. Blood samples were collected on days 0, 1, 7, and 14 after the animals had fasted overnight. Plasma concentrations of glucose, glucagon, and amino acids were assayed by the Hormone Assay & Analytical Services Core at Vanderbilt University (Nashville, TN).

[1] = Pharmacokinetics / plasma GRA1 concentrations in hGCGR mice; format: in vivo; details: mouse
Method: Under control conditions, hGCGR mice were normoglycemic and treatment of these animals with GRA1 lowered blood glucose concentrations only moderately.
Figure 2 In vivo inhibition of hepatic ^125I-glucagon binding in the hGCGR mouse following (A) acute and (B) chronic dosing with GRA1. The data are mean (±SEM) percent reductions in liver ^125I-glucagon content measured (A) 1, 3, 5, and 8 h after a single oral dose of 3 mg/kg GRA1, and (B) after treatment for 30 days with control diet or food/drug admixtures that provided 3, 6, 10, or 30 mg/kg·day GRA1. Pharmacokinetic analysis performed during the experiment in (A) determined that mean plasma GRA1 concentrations were 0.5, 0.6, 0.5, and 0.7 µM at 1, 3, 5, and 8 h postdose, respectively. TEXT PRINTED IN THE PICTURE: (A) no label printed: Receptor occupancy (%): 64% (Time postdose (h): 1); Receptor occupancy (%): 71% (Time postdose (h): 3); Receptor occupancy (%): 65% (Time postdose (h): 5); Receptor occupancy (%): 73% (Time postdose (h): 8) | (B) no label printed: Receptor occupancy (%): 71% (Dose (mg/kg): 3); Receptor occupancy (%): 78% (Dose (mg/kg): 6); Receptor occupancy (%): 83% (Dose (mg/kg): 10); Receptor occupancy (%): 93% (Dose (mg/kg): 30)
(§1) Figure 3 Blunting of glucagon-induced blood glucose excursions by GRA1 treatment in the (A) hGCGR mouse and (B) rhesus monkey. In (A), mice (n = 8) were administered vehicle or 3, 10 or 30 mg/kg GRA1, then challenged 1 h later (time 0) by intraperitoneal injection of 15 µg/kg glucagon or vehicle. Pharmacokinetic analysis determined that these animals had mean plasma GRA1 concentrations of 0.4, 0.9, and 4.7 µM, respectively, at 1 h postdose. In (B), monkeys (n = 4) were administered 1 mg/kg GRA1 4 h prior to intramuscular injection of 15 µg/kg glucagon or vehicle. At 1 h postdose, the mean plasma GRA1 concentration in these animals was 0.2 µM. *p<0.05; **p<0.01; and ***p<0.001 vs. glucagon-treated control animals.

hGCGR mouse = assay: Blunting of glucagon-induced blood glucose excursion in hGCGR mouse; format: in vivo; details: vehicle 1393±179
Method: In mouse studies of glucagon-induced excursions in blood glucose, animals were dosed orally with vehicle (10 mL/kg 0.5% aqueous methylcellulose) or GRA1 one hour prior to challenge by intraperitoneal injection of 15 µg/kg glucagon (Eli Lilly, Indianapolis, IN) or vehicle, [20]. In the studies in monkey, GRA1 or vehicle was administered to chair-restrained animals via a nasogastric tube 4 h prior to intramuscular injection of 15 µg/kg glucagon. Blood glucose measurements were made using a OneTouch glucometer (Lifescan, Milpitas, CA).
as §1

[2] = rhesus, 30 mg/kg once daily, Day 0
[3] = rhesus, 30 mg/kg once daily, Day 1
[4] = rhesus, 30 mg/kg once daily, Day 7
[5] = rhesus, 30 mg/kg once daily, Day 14

COc1ccc2cc(-c3cc(-c4cc(C(F)(F)F)ccc4F)nn3[C@@H](C)c3ccc(C(=O)NCCC(=O)O)cc3)ccc2c1 [GRA1, N-[4-((1S)-1-{3-(2-fluoro-5-trifluoromethylphenyl)-5-[6-methoxynaphth-2-yl]-1H-pyrazol-1-yl}ethyl)benzoyl]-β-alanine]
Hypoglycemia (rhesus monkeys; normoglycemic rhesus, 30 mg/kg once daily, 14 days): not rendered hypoglycemic | Plasma insulin (rhesus monkeys; rhesus, 30 mg/kg once daily (data not shown)): unaffected | Alanine, fasted plasma (rhesus monkeys; [2]): 200 ± 21 µM | Arginine, fasted plasma (rhesus monkeys; [2]): 124 ± 15 µM | Asparagine, fasted plasma (rhesus monkeys; [2]): 61.2 ± 17.8 µM | Aspartic acid, fasted plasma (rhesus monkeys; [2]): 5.3 ± 1.3 µM | Glucagon, fasted plasma (rhesus monkeys; [2]): 381 ± 74 pg/mL | Glucose, fasted plasma (rhesus monkeys; [2]): 85.3 ± 9.4 mg/dL | Glutamic acid, fasted plasma (rhesus monkeys; [2]): 48.1 ± 3.6 µM | Glutamine, fasted plasma (rhesus monkeys; [2]): 597 ± 66 µM | Glycine, fasted plasma (rhesus monkeys; [2]): 300 ± 32 µM | Histidine, fasted plasma (rhesus monkeys; [2]): 121 ± 11 µM | Hydroxyproline, fasted plasma (rhesus monkeys; [2]): 12.9 ± 2.3 µM | Isoleucine, fasted plasma (rhesus monkeys; [2]): 98.2 ± 8.3 µM | Leucine, fasted plasma (rhesus monkeys; [2]): 147 ± 9 µM | Lysine, fasted plasma (rhesus monkeys; [2]): 191 ± 25 µM | Methionine, fasted plasma (rhesus monkeys; [2]): 22.9 ± 2.7 µM | Phenylalanine, fasted plasma (rhesus monkeys; [2]): 47.8 ± 2.4 µM | Proline, fasted plasma (rhesus monkeys; [2]): 118 ± 13 µM | Serine, fasted plasma (rhesus monkeys; [2]): 123 ± 8 µM | Threonine, fasted plasma (rhesus monkeys; [2]): 95.2 ± 5.9 µM | Tyrosine, fasted plasma (rhesus monkeys; [2]): 77.2 ± 6.8 µM | Valine, fasted plasma (rhesus monkeys; [2]): 256 ± 21 µM | Alanine, fasted plasma (rhesus monkeys; [3]): 500 ± 79 µM | Arginine, fasted plasma (rhesus monkeys; [3]): 237 ± 33 µM | Asparagine, fasted plasma (rhesus monkeys; [3]): 42.5 ± 8.3 µM | Aspartic acid, fasted plasma (rhesus monkeys; [3]): 5.6 ± 0.7 µM | Glucagon, fasted plasma (rhesus monkeys; [3]): 921 ± 16 pg/mL | Glucose, fasted plasma (rhesus monkeys; [3]): 63.7 ± 2.7 mg/dL | Glutamic acid, fasted plasma (rhesus monkeys; [3]): 71.9 ± 5.7 µM | Glutamine, fasted plasma (rhesus monkeys; [3]): 986 ± 150 µM | Glycine, fasted plasma (rhesus monkeys; [3]): 533 ± 70 µM | Histidine, fasted plasma (rhesus monkeys; [3]): 153 ± 14 µM | Hydroxyproline, fasted plasma (rhesus monkeys; [3]): 15.4 ± 2.3 µM | Isoleucine, fasted plasma (rhesus monkeys; [3]): 72.4 ± 7.9 µM | Leucine, fasted plasma (rhesus monkeys; [3]): 164 ± 24 µM | Lysine, fasted plasma (rhesus monkeys; [3]): 390 ± 56 µM | Methionine, fasted plasma (rhesus monkeys; [3]): 50.2 ± 10.0 µM | Phenylalanine, fasted plasma (rhesus monkeys; [3]): 52.6 ± 7.0 µM | Proline, fasted plasma (rhesus monkeys; [3]): 326 ± 54 µM | Serine, fasted plasma (rhesus monkeys; [3]): 228 ± 24 µM | Threonine, fasted plasma (rhesus monkeys; [3]): 179.1 ± 25.1 µM | Tyrosine, fasted plasma (rhesus monkeys; [3]): 161.4 ± 26.8 µM | Valine, fasted plasma (rhesus monkeys; [3]): 252 ± 33 µM | Alanine, fasted plasma (rhesus monkeys; [4]): 456 ± 68 µM | Arginine, fasted plasma (rhesus monkeys; [4]): 341 ± 76 µM | Asparagine, fasted plasma (rhesus monkeys; [4]): 54.2 ± 10.8 µM | Aspartic acid, fasted plasma (rhesus monkeys; [4]): 6.7 ± 1.2 µM | Glucagon, fasted plasma (rhesus monkeys; [4]): 874 ± 101 pg/mL | Glucose, fasted plasma (rhesus monkeys; [4]): 69.2 ± 4.9 mg/dL | Glutamic acid, fasted plasma (rhesus monkeys; [4]): 98.9 ± 15.2 µM | Glutamine, fasted plasma (rhesus monkeys; [4]): 1186 ± 164 µM | Glycine, fasted plasma (rhesus monkeys; [4]): 558 ± 74 µM | Histidine, fasted plasma (rhesus monkeys; [4]): 170 ± 15 µM | Hydroxyproline, fasted plasma (rhesus monkeys; [4]): 23.3 ± 5.3 µM | Isoleucine, fasted plasma (rhesus monkeys; [4]): 88.6 ± 8.2 µM | Leucine, fasted plasma (rhesus monkeys; [4]): 215 ± 44 µM | Lysine, fasted plasma (rhesus monkeys; [4]): 340 ± 71 µM | Methionine, fasted plasma (rhesus monkeys; [4]): 36.1 ± 5.6 µM | Phenylalanine, fasted plasma (rhesus monkeys; [4]): 49.7 ± 3.3 µM | Proline, fasted plasma (rhesus monkeys; [4]): 490 ± 95 µM | Serine, fasted plasma (rhesus monkeys; [4]): 256 ± 41 µM | Threonine, fasted plasma (rhesus monkeys; [4]): 160.9 ± 21.3 µM | Tyrosine, fasted plasma (rhesus monkeys; [4]): 110.6 ± 7.9 µM | Valine, fasted plasma (rhesus monkeys; [4]): 260 ± 17 µM | Alanine, fasted plasma (rhesus monkeys; [5]): 361 ± 51 µM | Arginine, fasted plasma (rhesus monkeys; [5]): 282 ± 54 µM | Asparagine, fasted plasma (rhesus monkeys; [5]): 33.8 ± 4.8 µM | Aspartic acid, fasted plasma (rhesus monkeys; [5]): 5.9 ± 0.8 µM | Glucagon, fasted plasma (rhesus monkeys; [5]): 984 ± 186 pg/mL | Glucose, fasted plasma (rhesus monkeys; [5]): 69.2 ± 3.8 mg/dL | Glutamic acid, fasted plasma (rhesus monkeys; [5]): 91.9 ± 10.0 µM | Glutamine, fasted plasma (rhesus monkeys; [5]): 1151 ± 191 µM | Glycine, fasted plasma (rhesus monkeys; [5]): 531 ± 76 µM | Histidine, fasted plasma (rhesus monkeys; [5]): 187 ± 21 µM | Hydroxyproline, fasted plasma (rhesus monkeys; [5]): 15.3 ± 2.3 µM | Isoleucine, fasted plasma (rhesus monkeys; [5]): 89.6 ± 7.8 µM | Leucine, fasted plasma (rhesus monkeys; [5]): 218 ± 36 µM | Lysine, fasted plasma (rhesus monkeys; [5]): 375 ± 70 µM | Methionine, fasted plasma (rhesus monkeys; [5]): 34.7 ± 6.3 µM | Phenylalanine, fasted plasma (rhesus monkeys; [5]): 51.5 ± 1.8 µM | Proline, fasted plasma (rhesus monkeys; [5]): 415 ± 84 µM | Serine, fasted plasma (rhesus monkeys; [5]): 217 ± 28 µM | Threonine, fasted plasma (rhesus monkeys; [5]): 155.3 ± 23.3 µM | Tyrosine, fasted plasma (rhesus monkeys; [5]): 105.8 ± 9.9 µM | Valine, fasted plasma (rhesus monkeys; [5]): 276 ± 20 µM | Increase of plasma glucagon relative to vehicle-treated controls (rhesus monkeys; rhesus, 30 mg/kg once daily, both Day 1 and Day 7): approximately 3 fold | concentration at 1 h ([1]; oral, 3 mg/kg p.o., 1 h postdose (glucagon challenge)): 400 nM | concentration at 1 h ([1]; oral, 10 mg/kg p.o., 1 h postdose (glucagon challenge)): 900 nM | concentration at 1 h ([1]; oral, 30 mg/kg p.o., 1 h postdose (glucagon challenge)): 4700 nM | concentration at 1 h ([1]; single oral 3 mg/kg, 1 h postdose (occupancy experiment)): 500 nM | concentration at 3 h ([1]; single oral 3 mg/kg, 3 h postdose (occupancy experiment)): 600 nM | concentration at 5 h ([1]; single oral 3 mg/kg, 5 h postdose (occupancy experiment)): 500 nM | concentration at 8 h ([1]; single oral 3 mg/kg, 8 h postdose (occupancy experiment)): 700 nM | Baseline-subtracted mean AUC0–50 of glucagon-stimulated blood glucose excursion (hGCGR mouse; 3 mg/kg p.o. 1 h before 15 µg/kg glucagion i.p.): 812 ± 122 mg·min/dL | Baseline-subtracted mean AUC0–50 of glucagon-stimulated blood glucose excursion (hGCGR mouse; 10 mg/kg p.o. 1 h before 15 µg/kg glucagon i.p.): 543 ± 68 mg·min/dL | Baseline-subtracted mean AUC0–50 of glucagon-stimulated blood glucose excursion (hGCGR mouse; 30 mg/kg p.o. 1 h before 15 µg/kg glucagon i.p.): 476 ± 64 mg·min/dL
